Reference: ChEMBL document CHEMBL1201862, “PubChem BioAssay data set” (2004)
Calls of active or inactive are those of the source. Cut-off read from the data, not from the text of the source, for most assays here: actives have a measured EC50 and inactives only a lower limit.

Tests used:
[1] = HEp-2 cell cytotoxicity, dose response, cytotoxicity control for RSV inhibitor project, HTS (AID 2410); assay type: functional; conditions: human respiratory syncytial virus
[2] = NIH-3T3 fibroblast cytotoxicity, dose response, cytotoxicity control, cell-based, fluorescence, Alamar Blue, secondary assay (AID 2327); assay type: functional;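 note: NIH-3T3 mouse fibroblasts cultured with fluconazole at 8 µg/mL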
[3] = C. albicans growth with fluconazole, confirmation, fluorescence, retest (AID 2467); assay type: functional, cell-based
[4] = cytotoxicity toward DRD oncogenic fibroblasts, dose response, cell-based, non-viral oncogenic, luminescence (AID 1934); assay type: functional; conditions: Homo sapiens
BJ [5] = assay: cytotoxicity toward BJ-TERT fibroblasts, dose response, cell-based, RAS-independent, luminescence (AID 1933); assay type: functional; conditions: Homo sapiens
BJ [6] = assay: cells; assay type: functional, cell-based; conditions: Homo sapiens
BJ [7] = assay: cytotoxicity toward BJ-TERT-LT-ST fibroblasts, dose response, cell-based, RAS-independent, luminescence (AID 1935); assay type: functional; conditions: Homo sapiens;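 note: BJ fibroblasts immortalized with TERT plus LT and ST oncogenes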
[8] = Luminescence Cell-Based Dose Confirmation HTS to Identify Activators of 5'UTR Stem-Loop Driven Alpha-Synuclein mRNA Translation in H4 Neuroglioblastoma Cells. [Related pubchem assays: 1829 (Project Summary), 1814 (Primary HTS)]; assay type: functional
[9] = Luminescence Cell-Based Dose Response HTS to Identify Activators of Luciferase Translation or Activity in H4 […] Cells. [Related pubchem assays: 1829 (Project Summary), 1814 (Primary HTS)]; assay type: functional
H4 = assay: Luminescence Cell-Based Dose Response HTS to Identify Activators of 5'UTR Stem-Loop Driven Prion Protein mRNA Translation in H4 Neuroglioblastoma Cells. [Related pubchem assays: 1829 (Project Summary), 1814 (Primary HTS)]; assay type: functional; conditions: Homo sapiens
cells = assay type: functional
[10] = target: T1, Calpain-2 catalytic subunit (Sus scrofa, UniProt P43367); assay: pig calpain II inhibitor potency, dose response, biochemical, fluorogenic peptide substrate (AID 1420); assay type: functional
T1 sequence (P43367 whole entry): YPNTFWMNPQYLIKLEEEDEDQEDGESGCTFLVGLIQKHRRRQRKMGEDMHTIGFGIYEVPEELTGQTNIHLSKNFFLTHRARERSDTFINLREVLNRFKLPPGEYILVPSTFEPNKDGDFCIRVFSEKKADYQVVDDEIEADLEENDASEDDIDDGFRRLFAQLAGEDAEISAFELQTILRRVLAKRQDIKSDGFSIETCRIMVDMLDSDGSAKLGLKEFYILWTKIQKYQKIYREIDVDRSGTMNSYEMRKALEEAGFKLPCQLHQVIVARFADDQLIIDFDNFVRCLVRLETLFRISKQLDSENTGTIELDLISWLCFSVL

[11] = Luminescence Cell-Based Dose Retest to Confirm Inhibitors of Cancer Stem Cells. [Related pubchem assays (depositor defined):AID2717, AID2721]; assay type: functional; conditions: Homo sapiens
[12] = HepG2 cell cytotoxicity, dose response, cytotoxicity control for Shn3 inhibitor project, CellTiter-Glo, cherry-picked (AID 624134); assay type: functional, cell-based
Streptokinase A = target: T2, Streptokinase A (Streptococcus pyogenes serotype M1, UniProt P10520); assay: S. pyogenes streptokinase expression inhibitors, potency, dose response, plasminogen activation absorbance, OD405 (AID 1914); assay type: functional, Streptococcus pyogenes M1 GAS;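 note: secreted streptokinase activity via plasminogen activation per viability signal from cell pellet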
T2 sequence (P10520 whole entry): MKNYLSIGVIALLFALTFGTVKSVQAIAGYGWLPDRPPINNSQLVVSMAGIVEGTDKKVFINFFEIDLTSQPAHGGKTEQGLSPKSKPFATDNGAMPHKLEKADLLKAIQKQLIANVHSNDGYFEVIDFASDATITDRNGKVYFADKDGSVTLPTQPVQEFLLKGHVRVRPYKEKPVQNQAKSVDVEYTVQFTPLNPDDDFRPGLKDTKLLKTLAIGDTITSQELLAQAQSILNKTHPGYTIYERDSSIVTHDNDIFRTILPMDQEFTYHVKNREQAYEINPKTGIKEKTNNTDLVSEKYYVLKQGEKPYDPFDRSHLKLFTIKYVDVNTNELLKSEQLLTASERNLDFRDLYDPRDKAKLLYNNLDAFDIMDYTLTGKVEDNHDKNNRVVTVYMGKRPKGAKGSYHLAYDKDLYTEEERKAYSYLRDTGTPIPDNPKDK

Streptococcus = assay: Group A Streptococcus viability loss, dose response, counter-screen for streptokinase expression inhibitor project, luminescence, BacTiterGlo (AID 1915); assay type: functional, organism-based;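 note: potency for reduction of bacterial viability or growth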
[13] = control 3'UTR Renilla luciferase suppression, dose response, counter-screen for Shn3 inhibitor project, cell-based, Clone20-Shn3RL, cherry-picked (AID 624133); assay type: functional
[14] = test system: Streptococcus sp. 'group A'; assay: growth inhibition of control SK(-) GAS strain, dose response, counter-screen for streptokinase expression inhibitor project, luminescence, kanamycin, BacTiterGlo, confirmation (AID 1900); assay type: functional, organism-based
[15] = Shn3 3'UTR reporter inhibitors, dose response, cell-based, Clone20 osteoblasts, firefly luciferase, cherry-picked (AID 624132); assay type: functional;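 note: firefly luciferase luminescence from reporter carrying the Shn3 3'UTR in osteoblasts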
[16] = growth suppression of PTEN-null colon cells, dose response, cell-based, HCT116 PTEN knockout (AID 1047); assay type: functional;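 note: HCT116 colon tumor cells with PTEN knocked out; cells exposed to compound for 60 hours before readout; potency for loss of cell viability measured by luminescence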
Paired box protein Pax-8 = Paired box protein Pax-8 (Homo sapiens, UniProt Q06710); assay: inhibitors of PAX8-driven TPO luciferase reporter, dose response, RMG-I cells, cherry-pick (AID 687027); assay type: functional, cell-based;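 note: luciferase reporter driven by Pax8 target thyroperoxidase promoter measured by SteadyGlo luminescence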
Sequence of Paired box protein Pax-8 (Q06710 whole entry): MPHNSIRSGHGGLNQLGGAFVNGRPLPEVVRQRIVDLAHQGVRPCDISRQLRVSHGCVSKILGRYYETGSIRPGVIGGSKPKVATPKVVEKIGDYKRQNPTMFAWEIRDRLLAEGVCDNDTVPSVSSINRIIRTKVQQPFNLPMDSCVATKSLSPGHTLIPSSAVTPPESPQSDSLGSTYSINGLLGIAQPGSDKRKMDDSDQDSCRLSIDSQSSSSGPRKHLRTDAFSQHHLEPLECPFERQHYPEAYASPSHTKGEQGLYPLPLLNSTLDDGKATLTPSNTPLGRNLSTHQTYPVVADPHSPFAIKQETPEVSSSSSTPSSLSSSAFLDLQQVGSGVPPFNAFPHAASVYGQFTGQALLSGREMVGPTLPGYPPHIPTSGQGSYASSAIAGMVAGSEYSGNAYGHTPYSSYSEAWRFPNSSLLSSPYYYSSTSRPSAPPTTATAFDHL

[17] = inhibitors of intracellular T. cruzi replication, confirmation, NIH3T3 host cells, beta-gal luminescence (AID 2044); assay type: functional, cell-based;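 note: intracellular parasites grown in NIH/3T3 mouse fibroblasts as host cells; luminescent beta-galactosidase reporter signal from transgenic T. cruzi replicating inside host cells; inhibitors lower the luminescence signal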
[18] = cytotoxicity toward NIH3T3 fibroblasts, dose response, counter-screen, cell-based, ATP luminescence, mouse fibroblasts (AID 2010); assay type: functional;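 note: cells exposed to compound for about 90 hours before reading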

## COc1ccc(C(=O)CCc2ccccc2O)c(OC)c1
[1]
  CC50: 41.8 µM (active)

## CCCOc1cccc(-c2nnc(NC(=O)c3ccco3)s2)c1
[2]
  EC50: 15.9 µM (active)
[3]
  EC50: 1.91 µM (active)

## Cc1cccc(OCCNc2cc(N3CCN(CCO)CC3)ccc2[N+](=O)[O-])c1
[1]
  CC50: 15.6 µM (active)

## CNc1nccc(-c2ccc(F)cc2)c1C#N
[1]
  CC50: 47.5 µM (active)

## CCCC1=Nc2cc(C(=O)NCCCOC(C)C)ccc2Sc2ccccc21
[4]
  EC50: 5.1 µM (active)
BJ [5]
  EC50: 9.44 µM (inconclusive)
BJ [6]
  EC50: 37.8 µM (active)
BJ [7]
  EC50: 17.2 µM (inconclusive)

## Cc1cc(C)nc(Nc2n[nH]c(-c3ccccc3Cl)n2)n1
[8]
  EC50: 12.3 µM (active)
[9]
  EC50: 19.8 µM (active)
H4
  EC50: 52.7 µM (inconclusive)

## O=C(Oc1ccccc1)c1cc2ccccc2o1
cells
  IC50: 18.4 µM (active)

## O=C(Oc1ccccc1)c1ccc(COC(=O)c2cnccn2)cc1
cells
  IC50: 6.29 µM (active)

## Cc1onc(-c2c(F)cccc2Cl)c1C(=O)NNC(=O)C1CCN(Cc2ccccc2)CC1
[2]
  EC50: > 150 µM (inconclusive)
[3]
  EC50: > 38 µM (not active)

## COc1ccc(C(=O)Nc2nc3ccc(OC)cc3s2)cc1
[1]
  CC50: 21.5 µM (active)

## Oc1cccc(Nc2nc(-c3ccccc3)nc3ccccc23)c1
[1]
  CC50: 13.3 µM (active)

## CCOc1ccc2nc(NC(=O)CSc3nc(SC)ns3)sc2c1
[8]
  EC50: 12.7 µM (active)
[9]
  EC50: 8.43 µM (active)
H4
  EC50: 47.5 µM (active)

## CC(C)(C)c1ccc(C(=O)C2CCCN(Cc3ccon3)C2)cc1 (centres undefined)
[8]
  EC50: 14.6 µM (active)
[9]
  EC50: 18.3 µM (active)
H4
  EC50: 17.2 µM (active)

## CCOc1ccc(NC(=O)C(c2ccccn2)N(C(=O)CCl)c2ccc(OC)cc2)cc1 (centres undefined)
[4]
  EC50: > 150 µM (not active)
BJ [5]
  EC50: > 150 µM (not active)
BJ [6]
  EC50: > 150 µM (not active)
BJ [7]
  EC50: > 150 µM (inconclusive)

## Cc1ccc(S(=O)(=O)NC(=Nc2ccccn2)c2ccc(Cl)cc2)cc1
[8]
  EC50: > 120 µM (not active)
[9]
  EC50: 34.8 µM (active)
H4
  EC50: > 120 µM (not active)

## Cc1cc(C(=O)OCC(=O)N2CCc3ccccc32)c(C)o1
[8]
  EC50: 5.44 µM (active)
[9]
  EC50: 21.6 µM (active)
H4
  EC50: 13.4 µM (active)

## CCOc1ccc(NC2=NC(=O)CS2)cc1
[1]
  CC50: 24.5 µM (active)

## Cc1ccc(-c2ccc([C@H]3[C@@H]4C=CCC[C@@]4(C)C(=O)N3Cc3ccccc3)c(F)c2)cc1
[10]
  IC50: 3.65 µM (not active)
[11]
  AC50: 3.55 µM (active)

## O=C(O)/C=C/c1ccc(S(=O)(=O)Nc2ccc(C(=O)NCC(=O)O)cc2)cc1
[2]
  EC50: > 160 µM (inconclusive)
[3]
  EC50: > 38 µM (not active)

## CC/C(=C/c1ccccc1)c1cccc2[nH]c3c(OC)cccc3c12
[12]
  AC50: > 70 µM (inactive)
Streptokinase A
  EC50: 19.6 µM (active)
Streptococcus
  EC50: 4.75 µM (active)
[13]
  AC50: 19 µM (active)
[14]
  EC50: 1.87 µM (active)
[15]
  AC50: 32.8 µM (active)

## CCOC(=O)c1cc2cc3ccccc3cc2oc1=O
cells
  IC50: 10.9 µM (active)

## Cc1ccccc1N1CCN(Cc2ccc([N+](=O)[O-])o2)CC1
cells
  IC50: 0.73 µM (active)

## O=C(Nc1ccc2c(c1)OCCO2)C(=O)c1c[nH]c2ccccc12
[4]
  EC50: 4.19 µM (inconclusive)
BJ [5]
  EC50: 14.2 µM (active)
[11]
  AC50: 0.718 µM (active)
BJ [6]
  EC50: 28.3 µM (active)
BJ [7]
  EC50: 24.5 µM (inconclusive)

## COc1cc(/C=C2/C(=O)NN(c3ccc(Cl)cc3)C2=O)cc(OC)c1O
[2]
  EC50: > 160 µM (inactive)
[3]
  EC50: 2.27 µM (inconclusive)

## COc1ccc2nc(N3C(=O)C(O)=C(C(=O)c4ccco4)C3c3ccccc3OC)sc2c1 (centres undefined)
[8]
  EC50: > 120 µM (not active)
[9]
  EC50: > 120 µM (not active)
H4
  EC50: 32.4 µM (active)

## COc1cc(/C=C2/SC(=S)N(CC(=O)Nc3cccnc3)C2=O)cc(OC)c1OC
[4]
  EC50: > 150 µM (not active)
BJ [5]
  EC50: > 150 µM (not active)
BJ [6]
  EC50: > 150 µM (not active)
BJ [7]
  EC50: > 150 µM (inconclusive)

## O=C(Nc1ccc(-c2nc3ccccc3o2)cc1)c1cccnc1
[16]
  EC50: 23.3 µM (active)

## O=C1C(Cl)=C(NCCCN2CCOCC2)C(=O)N1CCc1ccccc1
[8]
  EC50: 6.1 µM (active)
[9]
  EC50: 15.3 µM (active)
H4
  EC50: 45.1 µM (active)

## CCCCNC(=O)Nc1c(C(=O)OC)[nH]c2ccc(C)cc12
[16]
  EC50: 37.7 µM (active)

## CN1C(=O)/C(=C\C(=O)c2cccs2)c2ccccc21
[2]
  EC50: > 150 µM (inconclusive)
[3]
  EC50: > 38 µM (not active)
Paired box protein Pax-8
  AC50: 23.1 µM (active)

## Cc1cc(=O)oc2c(C)c(OCC(=O)N3CCN(c4cccc(Cl)c4)CC3)ccc12
[1]
  CC50: 29.2 µM (active)

## Cc1ncsc1CCOC(=O)C1C2CC3CC(C2)CC1C3 (centres undefined)
[10]
  IC50: 45.8 µM (not active)

## CC(=O)O[C@@H]1[C@@H](O)[C@@H](O)[C@H](Oc2c(-c3ccc(O)cc3)oc3c(CC=C(C)C)c(O)cc(O)c3c2=O)O[C@H]1C
[1]
  CC50: 16.1 µM (active)

## N#Cc1cc(-c2ccccc2)[nH]c1-c1nccc2ccccc12
[12]
  AC50: 48.7 µM (active)
[13]
  AC50: 9.62 µM (active)
[15]
  AC50: 3.42 µM (active)

## COCc1nc(-c2ccc(-c3ccc(C)cc3)nc2OC)no1
[8]
  EC50: > 120 µM (not active)
[9]
  EC50: 76 µM (active)
H4
  EC50: 14.2 µM (active)

## COC(=O)COc1cccc(NC(=O)c2ccc(Cl)cc2)c1
cells
  IC50: 2.8 µM (active)

## CCCCOC(=O)C1CCCC(C(=O)OCCCC)N1 (centres undefined)
cells
  IC50: 16.6 µM (active)

## COc1ccc(S(=O)(=O)Oc2cccc(/C=N/NC3=NC(=O)C(CC(=O)O)S3)c2)cc1 (centres undefined)
[10]
  IC50: > 50 µM (not active)

## CCCCCCCCO/C(O)=C1\C(C)=Nc2nnnn2C1c1cccs1 (centres undefined)
[10]
  IC50: 3.59 µM (not active)
Streptokinase A
  EC50: > 50 µM (not active)
Streptococcus
  EC50: 7.3 µM (active)
[14]
  EC50: 2.33 µM (active)
[11]
  AC50: 6.65 µM (active)

## C/C(=N\NC(=O)c1c(Cl)cnn1C)c1ccc(NC(=O)c2ccc(Br)o2)cc1
[8]
  EC50: 6.11 µM (active)
[9]
  EC50: 6.56 µM (active)
H4
  EC50: 28.4 µM (active)

## CCn1c(=O)[nH]c2ccccc2/c1=N/C(=O)c1ccc(F)cc1
[1]
  CC50: 28 µM (active)

## Oc1nc(-c2ccccn2)nc(C(F)(F)F)c1Br
[2]
  EC50: > 150 µM (inactive)
[3]
  EC50: 0.596 µM (active)
[17]
  EC50: 1.86 µM (active)
[18]
  EC50: 10.9 µM (active)
